Test results published in patent publication EP0357495A2, “3'Azido-3'-deoxythymidine (AZT) derivatives active against the AIDS virus” (IRE-CELLTARG S.A., priority 1988, dated 1990).

Columns and labels:
cellules MT4 = test: cytotoxicity on non-infected MT4 cells (MTT method); type: cell-based
Procedure: Les produits (AZT, AZT-5′ hémisuccinyl et AZT 5′-leucyl) à différentes concentrations ont été mis en présence de cellules MT4 (4 X 10⁴ cellules par puits de microtray) infectées ou non avec 100 CCID₅₀ de virus HIV-1 (souche HTLV-IIIB). La CCID₅₀ représente la quantité de virus à rajouter pour obtenir une infection de 50 % des cellules (dose infectieuse de cellules en culture 50).
Après cinq jours d'incubation à 37°C, le nombre de cellules vivantes a été déterminé par la méthode au MTT, basée sur la réduction par les cellules vivantes du 3′-(4, 5-diméthylthiazol-2-yl)-2,5-diphényltétrazoliumbromide, jaune, en formazan, bleu. L'activité antivirale et la cytotoxicité sont exprimées sous forme de ED₅₀ et de CD₅₀. La CD₅₀ représente la dose qui tue 50 % des cellules non infectées et la ED₅₀ représente la dose qui protège 50 % des cellules de l'infection virale.
En effet l'AZT entre en compétition avec la thymidine au niveau des enzymes de phosphorylation qui vont le transformer en AZT triphosphate (AZT TP) qui est la forme active du produit. Un excès de thymidine réduit donc très fortement l'activité de l'AZT, ce qui se traduit par une ED₅₀ plus élevée. Par conséquent, si le dérivé de l'AZT doit son activité à la libération d'AZT qui à son tour est phosphorylé en AZT TP, un excès de thymidine aura également pour effet d'élever la ED₅₀ du dérivé. La thymidine étant cytotoxique à la concentration utilisée, il est nécessaire de rajouter de la 2′déoxycytidine pour empêcher cette toxicité.
Les protocoles expérimentaux sont ceux décrits à l'exemple 9 3.1) et 9 3).

[1] = system: virus HIV-1 (souche HTLV-IIIB); test: viral antigen expression in HIV-infected HUT-78 cells (indirect immunofluorescence, laser cytofluorescence); type: cell-based
Excerpt: Les produits (AZT et AZT-5′ hémisuccinyl) à différentes concentrations ont été mis en présence de cellules HUT-78 infectées par le virus HIV-1 (souche HTLV-IIIB) à une multiplicité d'infection de 0.4. Tous les quatre jours, 3/4 du milieu ont été remplacés par du milieu frais. Après douze jours, l'expression des antigènes viraux a été mesurée par immunofluorescence indirecte à l'aide d'un sérum anti-HIV-I positif, et par cytofluorescence laser, tel que décrit par Pauwels et al. J. Virol. Meth. 16, 171-185 (1987).
Des résultats sont exprimés dans le tableau 3 en ED₅₀ et en pourcentage d'effet protecteur selon la formule : [formula] TABLEAU 3

[2] = system: virus HIV-1 (souche HTLV-IIIB); test: viral antigen assay in HIV-infected human peripheral blood lymphocytes; type: cell-based; conditions: day 14 of culture
Excerpt: Les lymphocytes ont été extraits d'un concentré plaquettaire par séparation sur gradient de Ficoll et élimination des adhérentes. Après 3 jours de stimulation par la phytohémaglutinine, ils ont été transférés dans un milieu additionné d'interleukine-2 (IL-2) est infectés par le virus HIV-1 (souche HTLV-IIIB). L'AZT et son dérivé 5′ hémisuccinate à différentes concentrations ont été rajoutés aux cellules au moment de l'infection.
Trois jours après l'infection, le milieu a été remplacé par du milieu frais additionné d'IL-2, contenant les produits aux concentrations désirées pour la moitié des cellules, et ne contenant plus de produit pour l'autre moitié. Ensuite, le milieu des cellules a été remplacé à moitié par du milieu frais additionné d'IL-2, contenant ou non les produits aux concentrations désirées, tous les 3 à 4 jours.
La multiplication du virus a été suivie par dosage des antigènes viraux dans les surnageants de culture (Innotest HIV-Organon Teknika).

[3] = system: lignées cellulaires continues; test: in vitro toxicity on continuous cell lines (MTT method); type: cell-based; conditions: all cell lines tested, comparison with AZT; tableau 8 is an image
Excerpt: Dans le but d'évaluer la toxicité du dérivé 5′hémisuccinyl de l'AZT, des expériences ont été réalisées sur différentes lignées cellulaires continues.
L'AZT et son dérivé 5′hémisuccinyl à différentes concentrations ont été mis en présence de cellules en phase de croissance. Le nombre de cellules vivantes a été déterminé par la méthode au MTT après 1, 2, 3 et 4 jours de culture. La cytotoxicité a été mesurée et est exprimée sous forme de CD₅₀.
Les lignées cellulaires continues utilisées sont les suivantes : - Cellules en suspension : [formula] - Cellules adhérentes : Hep-G2 : hépatocarcinome humain Hep-2 : carcinome épidermoïde humain
Les résultats sont repris au tableau 8.

[4] = system: cellules de la moëlle osseuse; test: toxicity on bone marrow cells (colony count, day 7); type: cell-based; conditions: bone marrow cells of a healthy donor, semi-solid medium with GMCSF, colonies at day 7
Excerpt: Des cellules ont été isolées à partir d'un prélèvement de moëlle osseuse chez un donneur sain. Elles ont été mises en culture en milieu semi-solide (agar) additionné de Granulocyte-Macrophage-Colony Stimulating Factor (GMCSF) en présence d'AZT et d'AZT 5′hémisuccinyl à différentes concentrations. Le nombre de cellules ayant donné naissance à une colonie a été déterminé par comptage de colonies au jour 7.
La toxicité du dérivé est de l'ordre de 10 fois plus faible que celle de l'AZT.

[5] = in vivo toxicity, intraperitoneal, 5-day-old NMRI mice; parameters: species or system souriceaux NMRI; conditions: AZT-5′hémisuccinyl, i.p.
Procedure: L'AZT et son dérivé 5′hémisuccinyl ont été administrés par voie infra-péritonéale à de souriceaux NMRI âgés de 5 jours (100 µl/g de poids corporel). Les animaux ont été contrôlés tous les jours selon 2 critères : survie et poids pendant 25 jours.
Les résultats sont repris au tableau 9. Les souriceaux traités n'ont pas montre de différence significative dans la prise de poids par rapport aux contrôles. Tableau 9

Cc1cn([C@H]2C[C@H](N=[N+]=[N-])[C@@H](COC(=O)CCC(=O)O)O2)c(=O)[nH]c1=O [AZT 5′hémisuccinyl, 5′-hémisuccinyl-3′-azido-3′-déoxythymidine]
toxicité (compared with AZT, in words) (cellules MT4; comparison with AZT): considérablement inférieure
CD₅₀ (cellules MT4; tableau 2, non-infected MT4 cells, 5 days at 37°C, dose that kills 50 % of cells): 196 µM
CD₅₀ (cellules MT4; tableau 4, MT-4, with thymidine (250µM) + 2′déoxy-cytidine (500 µM)): 362 µM
CD₅₀ (cellules MT4; tableau 4, MT-4, without thymidine / 2′déoxycytidine): 295 µM
Pourcentage d'effet protecteur ([1]; HUT-78, day 12, concentration 0.022 µM): -23%
Pourcentage d'effet protecteur ([1]; HUT-78, day 12, concentration 0.11 µM): 48%
Pourcentage d'effet protecteur ([1]; HUT-78, day 12, concentration 0.54 µM): 21%
Pourcentage d'effet protecteur ([1]; HUT-78, day 12, concentration 2.71 µM): 72%
ED₅₀ ([1]; HUT-78 cells, multiplicity of infection 0.4, day 12): ED₅₀ AZT-5′hémisuccinyl = 1,77 µM
ED₅₀ ([2]; durée d'administration 3 jours): 0.078 µM
ED₅₀ ([2]; durée d'administration 14 jours): 0.057 µM
toxicité sur lignées cellulaires continues (in words) [3]: moins toxique que l'AZT
toxicité plus faible que celle de l'AZT [4]: ~10 fois
Survivants au jour 25 ([5]; dose 1 g/kg poids corporel (équivalent AZT 0.73)): 100%
Survivants au jour 25 ([5]; dose 2 g/kg poids corporel (équivalent AZT 1.46)): 100%
Survivants au jour 25 ([5]; dose 3 g/kg poids corporel (équivalent AZT 2.2)): 50%
mortalité/jour ([5]; dose 3 g/kg poids corporel (équivalent AZT 2.2), au jour 1): (50 % au jour 1)
